Among the data in patent US7605172B2, “Thiazolo-naphthyl acids” (Wyeth, priority 2004, dated 2009) are IC50, inhibition and melting point values, retold here.

One series has as its target human PAI-1 (Homo sapiens, UniProt P05121). Nature of the series: Assay for determining IC50 of inhibition of PAI-1 (Antibody Assay). The class given is binding. To be noted: active PAI-1 bound to tPA-coated plate. The method, then:
This assay is based upon the non-SDS dissociable interaction between tPA and active PAI-1. Assay plates are initially coated with human tPA (10 μg/ml). Test compounds of the present invention are dissolved in DMSO at 10 mM, then diluted with physiologic buffer (pH 7.5) to a final concentration of 1-50 μM. Test compounds are incubated with human PAI-1 (50 ng/ml) for 15 minutes at room temperature. The tPA-coated plate is washed with a solution of 0.05% Tween 20 and 0.1% BSA, then the plate is blocked with a solution of 3% BSA. An aliquot of the thiazolo-naphthyl acid/PAI-1 solution is then added to the tPA-coated plate, incubated at room temperature for 1 hour, and washed. Active PAI-1 bound to the plate is assessed by adding an aliquot of a 1:1000 dilution of the 33B8 monoclonal antibody against human PAI-1, and incubating the plate at room temperature for 1 hour (Molecular Innovations, Royal Oak, Mich.). The plate is again washed, and a solution of goat anti-mouse IgG-alkaline phosphatase conjugate is added at a 1:50,000 dilution in goat serum. The plate is incubated 30 minutes at room temperature, washed, and a solution of alkaline phosphatase substrate is added. The plate is incubated 45 minutes at room temperature, and color development is determined at OD405 nm. The quantitation of active PAI-1 bound to tPA at varying concentrations of the test compound is used to determine the IC50. Results are analyzed using a logarithmic best-fit equation. The assay sensitivity is 5 ng/ml of human PAI-1 as determined from a standard curve ranging from 0-100 ng/ml.

The target of series [1] is T1, recombinant human plasminogen activator inhibitor-1 (PAI-1) (Homo sapiens, UniProt P05121).
T1 construct: purchased Molecular Innovations, Royal Oak, Mich
Nature of the series: Primary screen for the PAI-1 inhibition. The class given is biochemical. To be noted: for inhibition at 10 µM: 10 μM test compound; for inhibition at 25 µM: 25 μM test compound. The method, then: Test compounds are dissolved in DMSO at a final concentration of 10 mM, then diluted 100× in physiologic buffer. The inhibitory assay is initiated by the addition of the test compound (1-100 μM final concentration, maximun DMSO concentration of 0.2%) in a pH 6.6 buffer containing 140 nM recombinant human plasminogen activator inhibitor-1 (PAI-1; Molecular Innovations, Royal Oak, Mich.). Following a 1 hour incubation at room temperature, 70 nM of recombinant human tissue plasminogen activator (tPA) is added, and the combination of the test compound, PAI-1 and tPA is incubated for an additional 30 minutes. Following the second incubation, Spectrozyme-tPA (American Diagnostica, Greenwich, Conn.), a chromogenic substrate for tPA, is added and absorbance read at 405 nm at 0 and 60 minutes. Relative PAI-1 inhibition is equal to the residual tPA activity in the presence of the test compound and PAI-1. Control treatments include the complete inhibition of tPA by PAI-1 at the molar ratio employed (2:1), and the absence of any effect of the test compound on tPA alone.

Chain of human PAI-1 (P05121 24-402): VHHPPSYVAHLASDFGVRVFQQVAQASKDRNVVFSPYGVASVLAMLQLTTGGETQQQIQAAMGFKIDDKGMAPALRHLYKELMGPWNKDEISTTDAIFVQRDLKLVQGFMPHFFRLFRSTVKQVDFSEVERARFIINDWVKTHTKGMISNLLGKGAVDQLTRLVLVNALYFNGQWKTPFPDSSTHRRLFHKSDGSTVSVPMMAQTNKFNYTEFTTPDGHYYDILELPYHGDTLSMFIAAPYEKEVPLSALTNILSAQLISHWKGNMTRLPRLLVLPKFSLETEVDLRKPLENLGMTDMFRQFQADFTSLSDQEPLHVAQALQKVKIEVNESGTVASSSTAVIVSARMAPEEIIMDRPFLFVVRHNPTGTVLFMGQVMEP
T1 sequence (P05121 24-402): as above

As a reminder, the IC50 is the concentration that gives 50% inhibition. A higher IC50 goes with a need for much substance. The inhibition is the relative decrease from the control value, in per cent. One may read the melting point as the temperature of the solid-liquid transition. For the compound `O=C(O)C(Cc1ccccc1)Oc1ccc2cc(-c3csc(-c4ccccc4)n3)ccc2c1` (stereo not drawn) [Example 1, 3-phenyl-2-{[6-(2-phenyl-1,3-thiazol-4-yl)-2-naphthyl]oxy}propanoic acid], the melting point was in the range of 154 to 160 °C. 26.2 µM corresponded to half-maximal inhibition at human PAI-1 (IC50). In addition, in series [1], the inhibition at 10 µM was determined as 4% and the inhibition at 25 µM was 62%.

In turn, `O=C(O)c1ccc(COc2ccc3cc(-c4csc(-c5ccccc5)n4)ccc3c2Br)cc1` (hydrate or solvate) [Example 8, 4-({[1-bromo-6-(2-phenyl-1,3-thiazol-4-yl)-2-naphthyl]oxy}methyl)benzoic acid] registered a melting point of 268 to 270 °C.

As for `O=C(O)c1ccc(COc2ccc3cc(-c4csc(-c5ccccc5)n4)ccc3c2Br)cc1` [Example 8, 4-({[1-bromo-6-(2-phenyl-1,3-thiazol-4-yl)-2-naphthyl]oxy}methyl)benzoic acid], in series [1], the inhibition at 10 µM was 38% and the inhibition at 25 µM amounted to 49%.

With `Brc1c(OCc2nnn[nH]2)ccc2cc(-c3csc(-c4ccccc4)n3)ccc12` [Example 5, 5-({[1-bromo-6-(2-phenyl-1,3-thiazol-4-yl)-2-naphthyl]oxy}methyl)-1H-tetraazole], the melting point was in the range of 227 to 231 °C. Moreover, in series [1], the inhibition at 10 µM is 42% and the inhibition at 25 µM was 64%.

In turn, `O=C(O)COc1ccc2cc(-c3csc(Cc4c(Cl)cccc4Cl)n3)ccc2c1` [Example 6, ({6-[2-(2,6-dichlorobenzyl)-1,3-thiazol-4-yl]-2-naphthyl}oxy)acetic acid] showed a melting point of 205 to 207 °C. In addition, in series [1], the inhibition at 10 µM was found to be 21% and the inhibition at 25 µM was determined as 43%.

As for `O=C(O)C(Cc1ccccc1)Oc1ccc2cc(-c3nc(-c4ccccc4)sc3Br)ccc2c1Br` (stereo not drawn) [Example 7, 2-{[1-bromo-6-(5-bromo-2-phenyl-1,3-thiazol-4-yl)-2-naphthyl]oxy}-3-phenylpropanoic acid], the melting point lay in the range of 221 to 223 °C. Besides, in series [1], the inhibition at 10 µM turned out to be 20% and the inhibition at 25 µM was determined as 71%.

As for `O=C(O)C(Cc1ccccc1)Oc1ccc2cc(-c3csc(-c4ccccc4)n3)ccc2c1Br` (stereo not drawn) [Example 3, 2-{[1-bromo-6-(2-phenyl-1,3-thiazol-4-yl)-2-naphthyl]oxy}-3-phenylpropanoic acid], the melting point lay within 220 to 224 °C. In series [1], the inhibition at 10 µM is 1% and the inhibition at 25 µM is 49%.

`c1ccc(-c2nc(-c3ccc4cc(OCc5nnn[nH]5)ccc4c3)cs2)cc1` [Example 2, 5-({[6-(2-phenyl-1,3-thiazol-4-yl)-2-naphthyl]oxy}methyl)-1H-tetraazole] displayed a melting point of 226 to 228 °C. The IC50 against human PAI-1 is 34.3 µM. Besides, in series [1], the inhibition at 10 µM was 6% and the inhibition at 25 µM amounted to 59%.

`O=C(O)COc1ccc2cc(-c3csc(-c4ccccc4)n3)ccc2c1Br` [Example 4, {[1-bromo-6-(2-phenyl-1,3-thiazol-4-yl)-2-naphthyl]oxy}acetic acid] returned a melting point of 222 to 230 °C. Besides, the half-maximal inhibitory concentration (IC50) against human PAI-1 turned out to be 20.3 µM. Further, in series [1], the inhibition at 10 µM was 40% and the inhibition at 25 µM amounted to 68%.
